Measurements taken from patent publication US4552868A, “14-Amino steroid derivatives, a process for the preparation thereof and method of use thereof” (Etablissements Nativelle S.A., priority 1982, dated 1985).
pIC50: −log10 of the molar value.

How the values were obtained:
membraneous ATPase = test: Inhibition of membraneous ATPase; type: biochemical; conditions: read-out: ED50 (dose causing 50% inhibition of membraneous ATPase)
Description: The results obtained using the derivatives of the invention described in Examples 2, 6 and 7 and ouabain and digoxin are shown in Table 2 below.
In Table 2, the ED50 value is the dose causing 50% inhibition of membraneous ATPase.

[1] = system: isolated guinea pig auricle; test: Positive inotropic activity: increase in force of contraction on the isolated guinea pig auricle; conditions: Cavia porcellus, read-out: Range of contractions in relation to the control values; for activation at 2 µM: 2 × 10^-6 Moles/l; for activation at 6 µM: 6 × 10^-6 Moles/l; for activation at 10 µM: 10^-5 Moles/l; for activation at 1 µM: 10^-6 Moles/l; for activation at 0.2 µM: 2 × 10^-7 Moles/l
Description: Inotropic activity has been verified on the isolated guinea pig auricle under normal experimental conditions, by recording the range of contractions for various doses administered in relation to control values.
Range of contractions in relation to the control values

cardiac contractility = test: Toxicity versus increase in cardiac contractility in the anesthetized dog; type: in vivo
Description: Similarly, the toxicity of the derivatives of the invention is reversible, that is, stopping their administration is sufficient to make problems observed using an electrocardiogram disappear.

**Q.** `C[C@@H]1O[C@@H](O[C@H]2CC[C@@]3(C)[C@H](CC[C@@H]4[C@@H]3CC[C@]3(C)[C@@H](CO)CC[C@]43N)C2)[C@H](O)[C@H](O)[C@H]1O` [Example 2, 3-O-(α-L-rhamnopyranosyl) 14β-amino 21-nor 5β-pregnane 3β,20-diol] was tested. Which pIC50 (membraneous ATPase) did it give?
**A.** 9.89

**Q.** Which results are given for `C[C@H](O)[C@H]1CC[C@]2(N)[C@@H]3CC[C@@H]4C[C@@H](O[C@@H]5O[C@@H](C)[C@H](O)[C@@H](O)[C@H]5O)CC[C@]4(C)[C@H]3CC[C@]12C` [Example 6, 3-O-(α-L-rhamnopyranosyl) 14β-amino 5β-pregnane 3β,20α-diol]?
**A.** activation at 2 µM [1]: 63%; activation at 6 µM [1]: 143%; activation at 10 µM [1]: 148%; activation at 1 µM [1]: 43%; pIC50 (membraneous ATPase): 9.74; increase in cardiac contractility without any signs of toxicity (cardiac contractility): 150%; signs of toxicity (cardiac contractility; at 150% increase in cardiac contractility): without any signs of toxicity

**Q.** For `C[C@@H]1O[C@@H](O[C@H]2CC[C@@]3(C)[C@H](CC[C@@H]4[C@@H]3CC[C@]3(C)[C@@H]([C@@H](C)O)CC[C@]43N)C2)[C@H](O)[C@H](O)[C@H]1O` [Example 7, 3-O-(α-L-rhamnopyranosyl) 14β-amino 5β-pregnane 3β,20β-diol], which activation at 2 µM [1] is on record?
**A.** 178%

**Q.** And the activation at 0.2 µM [1]?
**A.** 50%

**Q.** And the activation at 6 µM [1]?
**A.** 233%

**Q.** And the activation at 10 µM [1]?
**A.** 206%

**Q.** What about the activation at 1 µM [1] of the same compound?
**A.** 97%

**Q.** What about the pIC50 (membraneous ATPase) of the same compound?
**A.** 10.15

**Q.** `C[C@H]1O[C@@H](O[C@H]2[C@@H](O)C[C@H](O[C@H]3[C@@H](O)C[C@H](O[C@H]4CC[C@@]5(C)[C@H](CC[C@@H]6[C@@H]5C[C@@H](O)[C@]5(C)[C@@H](C7=CC(=O)OC7)CC[C@]65O)C4)O[C@@H]3C)O[C@@H]2C)C[C@H](O)[C@@H]1O` [digoxin, reference compound] was tested. Which activation at 2 µM [1] did it give?
**A.** 114%

**Q.** And the activation at 0.2 µM [1]?
**A.** 38%

**Q.** And the activation at 6 µM [1]?
**A.** 128%

**Q.** What about the activation at 10 µM [1] of the same compound?
**A.** 128%

**Q.** And the activation at 1 µM [1]?
**A.** 100%

**Q.** And the pIC50 (membraneous ATPase)?
**A.** 8.28

**Q.** And the “increase in cardiac contractility at which toxic signs appear” value (cardiac contractility; same experimental conditions)?
**A.** approximately 50%

**Q.** How did the pIC50 (membraneous ATPase) turn out when `C[C@@H]1O[C@@H](O[C@H]2C[C@@H](O)[C@]3(CO)[C@H]4[C@H](O)C[C@]5(C)[C@@H](C6=CC(=O)OC6)CC[C@]5(O)[C@@H]4CC[C@]3(O)C2)[C@H](O)[C@H](O)[C@H]1O` [ouabain, reference compound] was run?
**A.** 8.44
